Assay results published in US20170190671A1, “BIS(ARYL)CATECHOL DERIVATIVES AS HERBICIDES” (E I DU PONT DE NEMOURS AND COMPANY, priority 2014, published 2017).

Tests used:
Assay in all cases: Test C postemergence
Assay type in all cases: in vivo
[1] = system: kochia (Kochia scoparia); settings: Bassia scoparia, post-emergence, Postemergence, scale 0 to 100, read-out: Plant response rating, Kochia
How it was run: (§1)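 Treatment is preemergence to seeds in a loam and sand soil, or postemergence to plants 2 to 18 cm high in a peat moss-based medium. The compound is delivered in a non-phytotoxic solvent mixture including surfactant. Effects are judged by eye 13 to 15 days later on a 0 to 100 scale.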

[2] = system: winter wheat (Triticum aestivum); settings: Triticum aestivum, post-emergence, 336 h, Postemergence, scale 0 to 100, read-out: Plant response rating, Wheat
How it was run: as §1

[3] = system: ragweed (common ragweed, Ambrosia elatior); settings: Ambrosia artemisiifolia, post-emergence, 336 h, Postemergence, scale 0 to 100, read-out: Plant response rating, Ragweed
How it was run: as §1

[4] = system: oilseed rape (Brassica napus); settings: Brassica napus, post-emergence, Postemergence, scale 0 to 100, read-out: Plant response rating, Oilseed Rape
How it was run: as §1

[5] = system: waterhemp (common waterhemp, Amaranthus rudis); settings: Amaranthus tuberculatus, post-emergence, Postemergence, scale 0 to 100, read-out: Plant response rating, Waterhemp
How it was run: as §1

[6] = system: corn (Zea mays); settings: Zea mays, post-emergence, 336 h, Postemergence, scale 0 to 100
How it was run: as §1

[7] = system: large (Lg) crabgrass (Digitaria sanguinalis); settings: Digitaria sanguinalis, post-emergence, 336 h, Postemergence, scale 0 to 100, read-out: Plant response rating, Crabgrass, Large
How it was run: as §1

[8] = system: barnyardgrass (Echinochloa crus-galli); settings: Echinochloa crus-galli, post-emergence, Postemergence, scale 0 to 100, read-out: Plant response rating, Barnyardgrass
How it was run: as §1

[9] = system: pigweed (Amaranthus retroflexus); settings: Amaranthus retroflexus, post-emergence, 336 h, Postemergence, scale 0 to 100, read-out: Plant response rating, Pigweed
How it was run: as §1

[10] = system: wild oat (Avena fatua); settings: Avena fatua, post-emergence, Postemergence, scale 0 to 100, read-out: Plant response rating, Oat, Wild
How it was run: as §1

[11] = system: johnsongrass (Sorghum halepense); settings: Sorghum halepense, post-emergence, 336 h, Postemergence, scale 0 to 100, read-out: Plant response rating, Johnsongrass
How it was run: as §1

[12] = system: morningglory (Ipomoea coccinea); settings: Ipomoea, post-emergence, 336 h, Postemergence, scale 0 to 100, read-out: Plant response rating, Morningglory
How it was run: as §1

[13] = system: soybean (Glycine max); settings: Glycine max, post-emergence, Postemergence, scale 0 to 100, read-out: Plant response rating, Soybean
How it was run: as §1

[14] = system: galium (catchweed bedstraw, Galium aparine); settings: Galium, post-emergence, 336 h, Postemergence, scale 0 to 100, read-out: Plant response rating, Galium
How it was run: as §1

[15] = system: Italian ryegrass (Lolium multiflorum); settings: Lolium multiflorum, post-emergence, 336 h, Postemergence, scale 0 to 100, read-out: Plant response rating, Ryegrass, Italian
How it was run: as §1

Fc1cnc(Oc2c(Cl)cccc2Oc2ncc(Cl)cn2)nc1 [Compound 18, 5-chloro-2-[5-chloro-6-[(5-fluoro-2-pyrimidinyl)oxy]phenoxy]pyrimidine]
pest or weed control at 31 g/ha ([1]; 31 g ai/ha): 30% | pest or weed control at 62 g/ha ([1]; 62 g ai/ha): 50% | pest or weed control at 125 g/ha ([1]; 125 g ai/ha): 85% | pest or weed control at 250 g/ha ([1]; 250 g ai/ha): 95% | plant injury at 31 g/ha ([2]; 31 g ai/ha): 0% | plant injury at 62 g/ha ([2]; 62 g ai/ha): 0% | plant injury at 125 g/ha ([2]; 125 g ai/ha): 0% | plant injury at 250 g/ha ([2]; 250 g ai/ha): 15% | pest or weed control at 31 g/ha ([3]; 31 g ai/ha): 65% | pest or weed control at 62 g/ha ([3]; 62 g ai/ha): 75% | pest or weed control at 125 g/ha ([3]; 125 g ai/ha): 90% | pest or weed control at 250 g/ha ([3]; 250 g ai/ha): 95% | plant injury at 31 g/ha ([4]; 31 g ai/ha): 20% | plant injury at 62 g/ha ([4]; 62 g ai/ha): 35% | plant injury at 125 g/ha ([4]; 125 g ai/ha): 50% | plant injury at 250 g/ha ([4]; 250 g ai/ha): 80% | pest or weed control at 31 g/ha ([5]; 31 g ai/ha): 80% | pest or weed control at 62 g/ha ([5]; 62 g ai/ha): 85% | pest or weed control at 125 g/ha ([5]; 125 g ai/ha): 95% | pest or weed control at 250 g/ha ([5]; 250 g ai/ha): 98% | Corn plant response rating (crop injury, 0 = no effect, 100 = complete kill) at 31 g/ha ([6]; 31 g ai/ha): 5% | Corn plant response rating (crop injury, 0 = no effect, 100 = complete kill) at 62 g/ha ([6]; 62 g ai/ha): 5% | Corn plant response rating (crop injury, 0 = no effect, 100 = complete kill) at 125 g/ha ([6]; 125 g ai/ha): 20% | Corn plant response rating (crop injury, 0 = no effect, 100 = complete kill) at 250 g/ha ([6]; 250 g ai/ha): 55% | pest or weed control at 31 g/ha ([7]; 31 g ai/ha): 5% | pest or weed control at 62 g/ha ([7]; 62 g ai/ha): 5% | pest or weed control at 125 g/ha ([7]; 125 g ai/ha): 55% | pest or weed control at 250 g/ha ([7]; 250 g ai/ha): 70% | pest or weed control at 31 g/ha ([8]; 31 g ai/ha): 5% | pest or weed control at 62 g/ha ([8]; 62 g ai/ha): 5% | pest or weed control at 125 g/ha ([8]; 125 g ai/ha): 5% | pest or weed control at 250 g/ha ([8]; 250 g ai/ha): 10% | pest or weed control at 31 g/ha ([9]; 31 g ai/ha): 80% | pest or weed control at 62 g/ha ([9]; 62 g ai/ha): 90% | pest or weed control at 125 g/ha ([9]; 125 g ai/ha): 95% | pest or weed control at 250 g/ha ([9]; 250 g ai/ha): 98% | pest or weed control at 31 g/ha ([10]; 31 g ai/ha): 0% | pest or weed control at 62 g/ha ([10]; 62 g ai/ha): 0% | pest or weed control at 125 g/ha ([10]; 125 g ai/ha): 5% | pest or weed control at 250 g/ha ([10]; 250 g ai/ha): 30% | pest or weed control at 31 g/ha ([11]; 31 g ai/ha): 5% | pest or weed control at 62 g/ha ([11]; 62 g ai/ha): 10% | pest or weed control at 125 g/ha ([11]; 125 g ai/ha): 5% | pest or weed control at 250 g/ha ([11]; 250 g ai/ha): 10% | pest or weed control at 31 g/ha ([12]; 31 g ai/ha): 75% | pest or weed control at 62 g/ha ([12]; 62 g ai/ha): 70% | pest or weed control at 125 g/ha ([12]; 125 g ai/ha): 85% | pest or weed control at 250 g/ha ([12]; 250 g ai/ha): 95% | plant injury at 31 g/ha ([13]; 31 g ai/ha): 75% | plant injury at 62 g/ha ([13]; 62 g ai/ha): 85% | plant injury at 125 g/ha ([13]; 125 g ai/ha): 90% | plant injury at 250 g/ha ([13]; 250 g ai/ha): 95% | pest or weed control at 31 g/ha ([14]; 31 g ai/ha): 70% | pest or weed control at 62 g/ha ([14]; 62 g ai/ha): 90% | pest or weed control at 125 g/ha ([14]; 125 g ai/ha): 95% | pest or weed control at 250 g/ha ([14]; 250 g ai/ha): 95% | pest or weed control at 31 g/ha ([15]; 31 g ai/ha): 0% | pest or weed control at 62 g/ha ([15]; 62 g ai/ha): 0% | pest or weed control at 125 g/ha ([15]; 125 g ai/ha): 0% | pest or weed control at 250 g/ha ([15]; 250 g ai/ha): 40%
